Laboratory results taken from patent US11566056B2, “Peptide and use thereof for treatment of disease of brain and nervous system” (SYLUS CO., LTD, priority 2020, dated 2023).
Values joined by “and” are separate entries in the source; they are usually repeats but may differ in a detail not shown here. Equal entries are not always repeated. Ends that are not written are not given here.

What was measured:
[1] = target: T1, Soluble mouse EPOR chimera protein (Mus musculus, UniProt P14753); test: surface plasmon resonance (SPR) binding to erythropoietin receptor; settings: peptide 5, 2.5 and 1.25 μM
T1 construct: Soluble mouse EPOR chimera protein; purchased R&D Systems
T1 sequence (P14753 25-249 limits assumed): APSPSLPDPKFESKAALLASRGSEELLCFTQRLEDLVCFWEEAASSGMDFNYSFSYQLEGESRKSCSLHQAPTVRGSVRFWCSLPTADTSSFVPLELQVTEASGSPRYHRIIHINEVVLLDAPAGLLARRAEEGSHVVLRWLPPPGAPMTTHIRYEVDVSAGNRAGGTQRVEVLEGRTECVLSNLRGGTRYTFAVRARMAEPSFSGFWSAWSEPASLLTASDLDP
Procedure: The SPR technique uses an optical principle to measure the interaction between biomolecules in real time without a specific label, and is a system that analyzes the affinity and kinetics between two molecules, that is, Ka (association rate) and Kd (dissociation rate).
Specifically, the real-time SPR analysis was performed using Reichert SPR Biosensor SR 7500C equipment (Reichert Inc., NY, USA). Receptor mouse EPOR chimera protein (Soluble mouse EPOR chimera protein)(R&D Systems, Minneapolis, Minn., USA) was covalently bonded to a chip (BR-1005-39, Pharmacia Biosensor AB) coated with carboxy methylated dextran matrix by an amine coupling procedure using an amine coupling kit (BR-1000-50, GE Healthcare, USA) according to the manufacturer's manual. Peptides having concentrations of 5, 2.5 and 1.25 μM according to the present disclosure and scrambled peptides were tested by flowing at a flow rate of 5 μl/minute. In addition, the experiment was independently repeated to increase the accuracy. In addition, DMSO was flowed at 5 μl/minute to normalize the signal. After sufficiently inducing the binding of the peptide of an aspect to the receptor, regeneration was induced by injecting 20 μl/minute of 25 mM acetic acid into a sensor chip.

[2] = test system: HT-22 cells; test: cell viability under hypoxia-reoxygenation (H/R) conditions; type: cell-based; set-up: cell viability under hypoxia-reoxygenation conditions / cell viability under hypoxia-reoxygenation conditions, Average: unit not given here; settings: for cell viability under hypoxia-reoxygenation conditions, Average: average of 3; for cell viability under hypoxia-reoxygenation conditions: individual replicate
Procedure: First, the degree of cell viability was confirmed. Specifically, HT-22 cells cultured on a 96-well plate or a 6-well plate for 24 hours were maintained under hypoxic condition for 18 hours in a sealed airtight container of Anaeropack (Mitsubishi Gas Company, Tokyo, Japan). The Anaeropack absorbs oxygen and generates carbon dioxide, thereby inducing a hypoxic environment. Next, reoxygenation was performed at 5% CO2 and 37° C. for 3 hours.
Cell viability was compared when treated with SY-1, SY-2 and SY-3 of H/R cells cultured under low oxygen conditions (Hypoxia) and later cultured under oxygen conditions (Reoxygenation).

Sequence	ka [1]	kd [1]	cell viability under hypoxia-reoxygenation conditions, Average ([2]; 1 uM)	cell viability under hypoxia-reoxygenation conditions ([2]; 1 uM)	cell viability under hypoxia-reoxygenation conditions, Average ([2]; 2.5 uM)	cell viability under hypoxia-reoxygenation conditions ([2]; 2.5 uM)	cell viability under hypoxia-reoxygenation conditions, Average ([2]; 5 uM)	cell viability under hypoxia-reoxygenation conditions ([2]; 5 uM)	cell viability under H/R conditions (in words) ([2]; hypoxia 18 hours, reoxygenation 3 hours)
LQLHVLKAVAGLRTLTMIRRALA [SY-3]	25.6240	0.0554	0.726	0.722 and 0.736 and 0.719	0.735	0.739 and 0.741 and 0.724	0.727	0.707 and 0.732 and 0.741	the cell viability was the highest
LQLHVLKAVSGLRTLTMIRRALG [SY-2]	32.5770	0.0506	0.671	0.658 and 0.673 and 0.682	0.676	0.671 and 0.667 and 0.689	0.661	0.652 and 0.677 and 0.655	
LQLHVLKAVSGLRTLTTLLRALG [SY-1]	31.5970	0.0446	0.654	0.662 and 0.657 and 0.644	0.655	0.649 and 0.663 and 0.652	0.647	0.648 and 0.653 and 0.641	
